Measured values from US20060247320A1, “Compounds for inhibiting KSP kinesin activity” (priority 2005, published 2006).
Where two headings read alike, the source gives them in different places. One block for each molecule: values may come before it.

Biological target: T1, KSP motor domain (Homo sapiens, UniProt P52732)
T1 sequence (P52732 18-359 limits assumed): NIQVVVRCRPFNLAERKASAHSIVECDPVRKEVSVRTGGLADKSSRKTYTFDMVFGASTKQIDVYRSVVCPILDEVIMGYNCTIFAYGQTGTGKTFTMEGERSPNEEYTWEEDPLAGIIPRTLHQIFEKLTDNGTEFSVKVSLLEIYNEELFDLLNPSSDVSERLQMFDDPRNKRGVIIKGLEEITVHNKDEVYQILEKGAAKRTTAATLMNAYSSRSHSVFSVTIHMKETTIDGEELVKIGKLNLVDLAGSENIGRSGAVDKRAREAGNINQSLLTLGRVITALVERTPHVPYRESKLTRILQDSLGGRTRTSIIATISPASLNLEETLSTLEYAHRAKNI
Assay: biochemical

[1] = IC50 (nM), KSP inhibitory activity, end-point assay, class symbols (Table 1)
[2] = IC50 (nM), exact IC50 values, end-point assay (Table 2)
[3] = KSP inhibitory activity, end-point assay, class symbols (Table 1), read-out: IC50
[4] = exact IC50 values, end-point assay (Table 2), read-out: IC50

Compound: C[Si](C)(C)C1CCc2nc3sc(C(=O)NCCN)cc3cc2C1 (centres unmarked) [Example 191, N-(2-Aminoethyl) 5,6,7,8-Tetrahydro-6-(Trimethylsilyl)thieno[2,3-b]quinoline-2-Carboxamide]
IC50 [1]: < 100 nM | IC50 [2]: 10 nM

Compound: CC(C)(C)[C@@H]1CCc2nc3sc(C(=O)N[C@H](CN)c4ccc(NC(=O)c5cocn5)cc4)cc3cc2C1 [Example 271]
IC50 [3]: < 100 nM

Compound: CC(C)(C)C1CCc2nc3sc(C(=O)N[C@H](CN)c4cccc(-c5cccc6cccnc56)c4)cc3cc2C1 (stereo partly drawn) [Example 213, 6-tert-butyl-5,6,7,8-tetrahydro-thieno[2,3-b]quinoline-2-carboxylic acid [(1S)-2-amino-1-(3-quinolin-8-yl-phenyl)-ethyl]-amide]
IC50 [3]: 100 to 1000 nM

Compound: CN(C)Cc1cc2cc3c(nc2s1)CCC(C(C)(C)C)C3 (centres unmarked) [Example 152]
IC50 [3]: 1000 to 10000 nM

Compound: CC(C)(C)C1CCc2nc3sc(N)nc3cc2C1 (centres unmarked) [Example 133, 7-tert-Butyl-5,6,7,8-tetrahydrothiazolo[5,4-b]quinolin-2-ylamine]
IC50 [3]: > 10000 nM

Compound: CCC(CN)NC(=O)c1cc2cc3c(nc2s1)CCC(C(C)(C)C)C3 (centres unmarked) [Example 177]
IC50 [3]: < 100 nM | IC50 [4]: 65 nM

Compound: Cc1cc(C(=O)Nc2cccc([C@@H](CNCCO)NC(=O)c3cc4cc5c(nc4s3)CC[C@@H](C(C)(C)C)C5)c2)no1 [Example 266, 6(R)-tert-butyl-5,6,7,8-tetrahydro-thieno[2,3-b]quinoline-2-carboxylic acid (2-(2-hydroxy-ethylamino)-1(S)-{3-[(5-methyl-isoxazole-3-carbonyl)-amino]-phenyl}-ethyl)-amide]
IC50 [3]: < 100 nM

Compound: CC(C)CCC1CCc2nc3sc(C#N)c(N)c3cc2C1 (centres unmarked) [Example 20]
IC50 [3]: > 10000 nM

Compound: CCC(C(C)C)C1CCc2nc3sc(C#N)c(N)c3cc2C1 (centres unmarked) [Example 28]
IC50 [3]: 100 to 1000 nM

Compound: CC(C)(C)C1CCc2nc3c(cc2C1)c(N)c(C#N)[s+]3[O-] (centres unmarked) [Example 126, 3-Amino-6-tert-butyl-1-oxo-5,6,7,8-tetrahydro-1H-1λ^4-thieno[2,3-b]quinoline-2-carbonitrile]
IC50 [3]: 1000 to 10000 nM

Compound: CC(C)(C)C1CCc2nc3sc(C(=O)NCC(N)=O)cc3cc2C1 (centres unmarked) [Example 81]
IC50 (nM) (KSP inhibitory activity, end-point assay, class symbols (Table 1)): A/B | IC50 (number printed in brackets under a borderline class (A/B, B/C) in Table 1 of b1103, read-out: IC50): 100 nM

Compound: CCC(C)(C)C1CCc2nc3sc(C#N)cc3c(Cl)c2C1 (centres unmarked) [Example 113]
IC50 [3]: 1000 to 10000 nM

Compound: CC(C)(C)C1CCc2nc3sc(C(=O)Nc4cccc(N)c4)cc3cc2C1 (centres unmarked) [Example 226D]
IC50 [3]: 100 to 1000 nM

Compound: Cc1onc(-c2ccccc2)c1C(=O)Nc1cccc([C@@H](CN)NC(=O)c2cc3cc4c(nc3s2)CC[C@@H](C(C)(C)C)C4)c1 [Example 230]
IC50 [3]: 100 to 1000 nM

Compound: CC(C)(C)[C@@H]1CCc2nc3sc(C(=O)N[C@H](CN)c4cccc(NC(=O)c5c[nH]cn5)c4)cc3cc2C1 [Example 248]
IC50 [3]: < 100 nM

Compound: C[C@@H]1CN(C(=O)Nc2cccc([C@@H](CN)NC(=O)c3cc4cc5c(nc4s3)CC[C@@H](C(C)(C)C)C5)c2)C[C@H](C)N1 [Example 279]
IC50 [3]: < 100 nM

Compound: CN1CCN(C(=O)Nc2cccc([C@@H](CN)NC(=O)c3cc4cc5c(nc4s3)CC[C@@H](C(C)(C)C)C5)c2)CC1 [Example 275, 6(R)-tert-butyl-5,6,7,8-tetrahydro-thieno[2,3-b]quinoline-2-carboxylic acid (2-amino-1(S)-{3-[(4-methyl-piperazine-1-carbonyl)-amino]-phenyl}-ethyl)-amide]
IC50 [3]: < 100 nM

Compound: CC(C)(C)C1CCc2nc3sc(C(=O)NN4CCOCC4)cc3cc2C1 (centres unmarked) [Example 200, 6-(1,1-Dimethylethyl)-5,6,7,8-Tetrahydro-N-(4-Morpholinyl)thieno[2,3-b]quinoline-2-Carboxamide]
IC50 [3]: 1000 to 10000 nM

Compound: C[Si](C)(C)C1CCc2nc3sc(C(N)=O)cc3cc2C1 (single isomer, unassigned) [Example 189, 5,6,8-Tetrahydro-6-(Trimethylsilyl)thieno[2,3-b]quinoline-2-Carboxamide]
IC50 [1]: < 100 nM | IC50 [2]: 50 nM

Compound: CC(C)(C)C1CCc2nc3sc(C#N)c(Br)c3cc2C1 (centres unmarked) [Example 112, 6-tert-Butyl-3-bromo-5,6,7,8-tetrahydrothieno[2,3-b]quinoline-2-carbonitrile]
IC50 [3]: > 10000 nM

Compound: CC(C)C1Cc2cc3cc(C#N)sc3nc2CC1C (centres unmarked) [Example 208, 6-isopropyl-7-methyl-5,6,7,8-tetrahydro-thieno[2,3,-b]quinoline-2-carbonitrile]
IC50 [3]: 100 to 1000 nM

Compound: Cc1ccc([C@@H](CN)NC(=O)c2cc3cc4c(nc3s2)CCC(C(C)(C)C)C4)cc1 (some centres unmarked) [Example 221]
IC50 [3]: < 100 nM

Compound: CC(C)(C)C1CCc2nc3sc(C(N)=O)nc3cc2C1 (centres unmarked) [Example 131, 7-tert-Butyl-5,6,7,8-tetrahydrothiazolo[5,4-b]quinoline-2-carboxylic acid amide]
IC50 [3]: 100 to 1000 nM

Compound: CC(=O)NCc1cc2cc3c(nc2s1)CCC(C(C)(C)C)C3 (centres unmarked) [Example 154]
IC50 [3]: 1000 to 10000 nM

Compound: CC(C)(C)[C@@H]1CCc2nc3sc(C(=O)N[C@H](CN)c4cccc(NC(=O)c5nscc5N)c4)cc3cc2C1 [Example 254]
IC50 [3]: 100 to 1000 nM

Compound: CC(C)(C)[C@@H]1CCc2nc3sc(C(=O)N[C@H](CN)c4cccc(NC(=O)c5cc(-c6ccccc6)on5)c4)cc3cc2C1 [Example 234]
IC50 [3]: < 100 nM

Compound: CC(C)(C)C1CCc2nc3sc(-c4ncc(CO)[nH]4)cc3cc2C1 (centres unmarked) [Example 183, [2-(6-tert-Butyl-5,6,7,8-tetrahydrothieno[2,3-b]quinolin-2-yl)-3H-imidazol-4-yl]methanol]
IC50 [3]: 1000 to 10000 nM

Compound: CC(C)(C)C1CCc2nc3sc(C(=O)Nc4ccc(O)c(N)c4)cc3cc2C1 (centres unmarked) [Example 226H]
IC50 [3]: 100 to 1000 nM

Compound: CCOC(=O)c1cc2cc3c(nc2s1)CCC([Si](C)(C)C)C3 (centres unmarked) [Example 188, Ethyl 5,6,7,8-Tetrahydro-6-(Trimethylsilyl)thieno[2,3b]quinoline-2-Carboxylate]
IC50 [1]: > 10000 nM

Compound: Cn1nccc1C(=O)Nc1cccc([C@@H](CNCCO)NC(=O)c2cc3cc4c(nc3s2)CC[C@@H](C(C)(C)C)C4)c1 [Example 267]
IC50 [3]: 100 to 1000 nM

Compound: CC(C)(C)C1CCc2nc3sc(C(=O)N[C@H](CN)c4cccc(N)c4)cc3cc2C1 (some centres unmarked) [Example 217]
IC50 [3]: < 100 nM

Compound: CC(C)(C)C1CCc2nc3sc(C(=O)NC(CO)CO)cc3cc2C1 (centres unmarked) [Example 96]
IC50 [3]: 100 to 1000 nM

Compound: CC(C)(C)C1CCc2nc3sc(C(=O)N[C@H](CN)c4cccc(-c5ccncc5)c4)cc3cc2C1 (stereo partly drawn) [Example 212, 6-tert-butyl-5,6,7,8-tetrahydro-thieno[2,3-b]quinoline-2-carboxylic acid [(1S)-2-amino-1-(3-pyridin-4-yl-phenyl)-ethyl]-amide]
IC50 [3]: 100 to 1000 nM

Compound: CC(C)(C)C1CCc2nc3sc(C(N)=S)cc3cc2C1 (centres unmarked) [Example 70, 6-tert-butyl-5,6,7,8-tetrahydrothieno[2,3-b]quinoline-2-carbothioic acid amide]
IC50 [3]: 100 to 1000 nM

Compound: N#Cc1sc2nc3c(cc2c1N)CC(C12CC4CC(CC(C4)C1)C2)CC3 (centres unmarked) [Example 4]
IC50 [3]: > 10000 nM

Compound: Cc1cnc(C(=O)Nc2cccc([C@@H](CN)NC(=O)c3cc4cc5c(nc4s3)CC[C@@H](C(C)(C)C)C5)c2)cn1 [Example 259]
IC50 [3]: < 100 nM | IC50 [4]: 17 nM

Compound: CCC1Cc2nc3sc(C#N)cc3cc2CC1C(C)(C)C (centres unmarked) [Example 206, 6-tert-Butyl-7-ethyl-5,6,7,8-tetrahydro-thieno[2,3,-b]quinoline-2-carbonitrile]
IC50 [3]: 1000 to 10000 nM

Compound: C[C@@H](CN)NC(=O)c1cc2cc3c(nc2s1)CCC(C(C)(C)C)C3 (some centres unmarked) [Example 176]
IC50 [3]: < 100 nM

Compound: CC(C)(C)C1CCc2nc3sc4c(=O)[nH]nnc4c3cc2C1 (centres unmarked) [Example 119, 7-tert-Butyl-6,7,8,9-tetrahydro2H-11-thia-2,3,4,10-tetraazabenzo[b]fluoren-1-one]
IC50 [3]: 1000 to 10000 nM

Compound: C[C@H](NC(=O)c1cc2cc3c(nc2s1)CCC(C(C)(C)C)C3)C(=N)N (some centres unmarked) [Example 169]
IC50 [3]: < 100 nM

Compound: CC(C)(C)C1CCc2nc3sc(C(=O)Nc4ccccc4)cc3cc2C1 (centres unmarked) [Example 77]
IC50 [3]: > 10000 nM

Compound: CC(C)(C)C1CCc2nc3sc(C(=O)NCCN)c(N)c3cc2C1 (centres unmarked) [Example 193, 3-Amino-N-(2-Aminoethyl)-6-(1,1-Dimethylethyl)-5,6,7,8-Tetrahydrothieno[2,3-b]quinoline-2-Carboxamide]
IC50 [3]: 1000 to 10000 nM

Compound: CC(C)=C/C=C1\CCc2nc3sc(C#N)c(N)c3cc2C1 [Example 36]
IC50 [3]: > 10000 nM

Compound: CC(C)(C)C1CCc2nc3sc(-c4ncc(CN)[nH]4)cc3cc2C1 (centres unmarked) [Example 184, [2-(6-tert-Butyl-5,6,7,8-tetrahydrothieno[2,3-b]quinolin-2-yl)-3H-imidazol-4-yl]methylamine]
IC50 [3]: 100 to 1000 nM

Compound: CC(C)(C)C1CCc2cc3cc(C(N)=O)sc3nc2CC1 (centres unmarked) [Example 66]
IC50 [3]: 1000 to 10000 nM

Compound: CC(C)(C)C1CCc2nc3sc(C#N)c(Cl)c3cc2C1 (centres unmarked) [Example 111, 6-tert-Butyl-3-chloro-5,6,7,8-tetrahydrothieno[2,3-b]quinoline-2-carbonitrile]
IC50 [3]: > 10000 nM

Compound: CCOC(=O)Nc1cccc(C(CN)NC(=O)c2cc3cc4c(nc3s2)CCC(C(C)(C)C)C4)c1 (centres unmarked) [Example 223, (3-{2-amino-1-[(6-tert-butyl-5,6,7,8-tetrahydrothieno[2,3-b]quinoline-2-carbonyl)amino]ethyl}phenyl)carbamic acid ethyl ester]
IC50 [3]: < 100 nM

Compound: CCC1CCc2nc3sc(C#N)c(N)c3cc2C1 (centres unmarked) [Example 17]
IC50 [3]: 1000 to 10000 nM

Compound: CC(C)(C)C1CCc2nc3sc(C(=O)N[C@H](C#N)Cc4ccc(O)cc4)cc3cc2C1 (some centres unmarked) [Example 164]
IC50 [3]: 100 to 1000 nM

IC50 [3]: 1000 to 10000 nM
Compound: CC(C)(C)C1CCc2nc3sc(CC#N)cc3cc2C1 (centres unmarked) [Example 148]

Compound: N#Cc1sc2nc3c(cc2c1N)CC(C1CCCC1)CC3 (centres unmarked) [Example 22]
IC50 [3]: > 10000 nM
